Test system: not listed separately
Assay: mouse liver microsomal stability (Microsome Assay Protocol)
Format: in vitro ADME
Details: pH 7.4; mouse liver microsomes, NADPH, 37° C.; read-out: MLM t1/2, min
Description: (§1) ND refers to not disclosed.
• 1. Buffer A: 1.0 L of 0.1 M monobasic Potassium Phosphate buffer containing 1.0 mM EDTA Buffer B: 1.0 L of 0.1 M Dibasic Potassium Phosphate buffer containing 1.0 mM EDTA • Buffer C: 0.1 M Potassium Phosphate buffer, 1.0 mM EDTA, pH 7.4 by titrating 700 mL of buffer B with buffer A while monitoring with a pH meter. • 2. Reference compound (Ketanserin) and test compounds spiking solution: • 500 μM spiking solution: added 10 μL of 10 mM DMSO stock solution into 190 μL ACN. • 1.5 μM spiking solution in microsomes (0.75 mg/mL): added 1.5 μL of 500 μM spiking solution and 18.75 μL of 20 mg/mL liver microsomes into 479.75 μL of Buffer C on ice. • 3. Prepared NADPH stock solution (6 mM) by dissolving NADPH into buffer C. Dispensed 30 μL of 1.5 μM spiking solution containing 0.75 mg/mL microsomes solution to the assay plates designated for different time points (0-, 5-, 15-, 30-, 45-min) on ice. For 0-min, added 135 μL of ACN containing IS to the wells of 0-min plate and then added 15 μL of NADPH stock solution (6 mM). Pre-incubated all other plates at 37° C. for 5 minutes. Added 15 μL of NADPH stock solution (6 mM) to the plates to start the reaction and timing. At 5-min, 15-min, 30-min, and 45-min, added 135 μL of ACN containing IS to the wells of corresponding plates, respectively, to stop the reaction. After quenching, shook the plates at the vibrator (IKA, MTS 2/4) for 10 min (600 rpm/min) and then centrifuged at 5594 g for 15 min (Thermo Multifuge×3R). Transferred 50 μL of the supernatant from each well into a 96-well sample plate containing 50 μL of ultra pure water (Millipore, ZMQS50F01) for LC/MS analysis.
Work on `CC(=O)N1CCc2nc3cc(C(=O)NCCCC(Cc4ccccc4)C(=O)N4CCC(O)(Cn5cnc6cc(NC(=O)CN(C)C)ccc6c5=O)CC4)ccc3c(Cl)c2C1` (stereo not drawn) [Compound 33, 2-acetyl-N-(4-benzyl-5-(4-((7-(2-(dimethylamino)acetamido)-4-oxoquinazolin-3(4H)-yl)methyl)-4-hydroxypiperidin-1-yl)-5-oxopentyl)-10-chloro-1,2,3,4-tetrahydrobenzo[b][1,6]naphthyridine-7-carboxamide] yielded a half-life at 1 µM of 2.1 min. `CN(C)CCC(=O)Nc1ccc2c(=O)n(CC3(O)CCN(C(=O)C(CCCNC(=O)c4ccc5c(Cl)c6c(nc5c4)CN(C)CC6)Cc4ccccc4)CC3)cnc2c1` (stereo not drawn) [Compound 40, N-(4-benzyl-5-(4-((7-(3-(dimethylamino)propanamido)-4-oxoquinazolin-3(4H)-yl)methyl)-4-hydroxypiperidin-1-yl)-5-oxopentyl)-5-chloro-2-methyl-1,2,3,4-tetrahydrobenzo[b][1,7]naphthyridine-8-carboxamide] gave a half-life at 1 µM of 7.4 min. In the case of `CN(C)CCCOc1cc2ncn(CC3(O)CCN(C(=O)[C@@H](CCCNC(=O)c4ccc5c(Cl)cc(C6CC6)nc5c4)Cc4ccccc4)CC3)c(=O)c2cc1F`, the half-life at 1 µM is reported as 22.1 min. Work on `CN(C)CCCNc1cc2ncn(CC3(O)CCN(C(=O)[C@@H](CCCNC(=O)c4ccc5c(Cl)cc(C6CC6)nc5c4)Cc4ccccc4)CC3)c(=O)c2cc1F` yielded a half-life at 1 µM of 18.6 min.

Target: T1, USP7, Active human recombinant protein (Homo sapiens, UniProt Q93009)
T1 construct: purchased CP Lot; 20200225001
T1 sequence (Q93009 whole entry): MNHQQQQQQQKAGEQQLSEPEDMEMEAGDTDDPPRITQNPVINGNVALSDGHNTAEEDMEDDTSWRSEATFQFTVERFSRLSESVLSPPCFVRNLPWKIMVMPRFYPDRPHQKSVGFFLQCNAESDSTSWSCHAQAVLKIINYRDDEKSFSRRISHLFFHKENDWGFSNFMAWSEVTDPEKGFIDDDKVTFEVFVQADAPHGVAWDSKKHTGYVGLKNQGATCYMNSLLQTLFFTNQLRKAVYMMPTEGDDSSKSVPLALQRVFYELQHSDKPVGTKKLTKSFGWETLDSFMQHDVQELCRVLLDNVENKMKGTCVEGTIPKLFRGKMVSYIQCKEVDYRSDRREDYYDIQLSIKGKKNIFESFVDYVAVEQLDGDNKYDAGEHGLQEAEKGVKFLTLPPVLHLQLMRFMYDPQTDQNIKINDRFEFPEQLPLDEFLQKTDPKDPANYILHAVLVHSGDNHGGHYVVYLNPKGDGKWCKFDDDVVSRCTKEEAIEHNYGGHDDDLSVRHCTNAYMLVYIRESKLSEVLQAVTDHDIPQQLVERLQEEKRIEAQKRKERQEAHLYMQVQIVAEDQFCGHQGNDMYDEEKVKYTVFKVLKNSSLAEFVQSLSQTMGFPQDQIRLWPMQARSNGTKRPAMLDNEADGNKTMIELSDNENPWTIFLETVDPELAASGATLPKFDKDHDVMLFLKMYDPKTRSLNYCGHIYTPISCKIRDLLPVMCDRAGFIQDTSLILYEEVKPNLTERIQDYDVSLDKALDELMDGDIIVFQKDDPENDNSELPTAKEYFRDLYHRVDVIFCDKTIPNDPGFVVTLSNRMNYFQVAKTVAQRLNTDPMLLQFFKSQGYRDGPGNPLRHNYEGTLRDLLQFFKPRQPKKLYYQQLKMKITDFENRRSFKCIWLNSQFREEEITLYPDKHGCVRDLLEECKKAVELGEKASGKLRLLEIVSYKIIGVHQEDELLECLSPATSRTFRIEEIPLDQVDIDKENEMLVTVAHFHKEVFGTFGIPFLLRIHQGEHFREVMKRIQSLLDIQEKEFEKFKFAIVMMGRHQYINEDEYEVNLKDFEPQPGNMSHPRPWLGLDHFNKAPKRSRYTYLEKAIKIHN
Assay: USP7 assay (Ubiquitin-Rhodamine 110 enzymatic assay)
Format: biochemical
Details: read-out: IC50
Description: Enzymatic Assays with Exemplary USP7 Irreversible Inhibitors
as §1
USP7, Active human recombinant protein (CP, Lot. 20200225001), Ubiquitin-Rhodamine 110 (Rh110) (BostonBiochem, Cat. No. U-555), DMSO (Sigma, Cat. N34869), DTT (Sangon Biotech, Cat. No. A620058-0005), […] Tris pH 8.0 (Sigma, Cat. No. T2694-1L), Tween-20 (Sigma, Cat. No. P2287-100ML), EDTA (Invitrogen, Cat. No. 15575020, BSA (Sigma, Cat. No. B2064-100G), 384-well assay plate (Corning, Cat. No. 3573), Echo Qualified 384-Well Polypropylene Microplate 2.0, Clear, Flat Bottom (LABCYTE, Cat. No. 001-14555).
Dilute the compounds to 400× of the final desired highest inhibitor concentration in reaction by 100% DMSO. For all compounds, transfer the compounds to one well in a 384-well Echo plate and serially dilute the compound by 3-fold dilution of 100% DMSO in the next well and so forth for a total of 10 concentrations by Precision. Add 30 μL of 100% DMSO to two empty wells for no compound control and no enzyme control in the same 384-well Echo plate. Make the plate as a source plate.
For USP7 assay, transfer 50 nL of each well from the source plate to a 384-well assay plate (OptiPlate TM-384 F black assay plates) by Echo 550 Liquid Handler.
Added appropriate amount of USP7 in 1× assay Buffer to prepare 2× enzyme solution (USP7 final concentration: 0.05 nM). Added appropriate amount of Ubiquitin-Rhodamine 110 in 1× assay Buffer to prepare 2× substrate solution (Ubiquitin-Rhodamine 110 final concentration: 190 nM). Added 10 μL of 2× enzyme solution to each reaction well of the 384-well assay plate, except for control wells without enzyme (add 10 μL of 1× Assay Buffer instead as for low control). […] Transferred 2× substrate solution to the assay plate. Added 10 μL of 2× substrate solution to each well of the 384-well assay plate to start reaction. Centrifuged at 1000 rpm for 1 min. Read the plate kinetically on SpectraMax Paradigm for 20 min with excitation at 485 nm and emission at 535 nm. Copied raw data (slope) from Reader to obtain inhibition values in Excel using equation (1): […]
Max signal was obtained from the action of Enzyme and Substrate. Min signal was obtained from the Substrate only. To fit the data in XLFit excel add-in version 5.4.0.8 to obtain IC50 values used equation (2): […]
Y is % inhibition and X is compound concentration.
For `CC(=O)N1CCc2nc3cc(C(=O)NCCCC(Cc4ccccc4)C(=O)N4CCC(O)(Cn5cnc6cc(NC(=O)CN(C)C)ccc6c5=O)CC4)ccc3c(Cl)c2C1` (stereo not drawn) [Compound 33, 2-acetyl-N-(4-benzyl-5-(4-((7-(2-(dimethylamino)acetamido)-4-oxoquinazolin-3(4H)-yl)methyl)-4-hydroxypiperidin-1-yl)-5-oxopentyl)-10-chloro-1,2,3,4-tetrahydrobenzo[b][1,6]naphthyridine-7-carboxamide], the IC50 was under 20 nM. In the case of `CN(C)CCC(=O)Nc1ccc2c(=O)n(CC3(O)CCN(C(=O)C(CCCNC(=O)c4ccc5c(Cl)c6c(nc5c4)CN(C)CC6)Cc4ccccc4)CC3)cnc2c1` (stereo not drawn) [Compound 40, N-(4-benzyl-5-(4-((7-(3-(dimethylamino)propanamido)-4-oxoquinazolin-3(4H)-yl)methyl)-4-hydroxypiperidin-1-yl)-5-oxopentyl)-5-chloro-2-methyl-1,2,3,4-tetrahydrobenzo[b][1,7]naphthyridine-8-carboxamide], the IC50 is reported as 20 to 100 nM. For `CN(C)CCCOc1cc2ncn(CC3(O)CCN(C(=O)[C@@H](CCCNC(=O)c4ccc5c(Cl)cc(C6CC6)nc5c4)Cc4ccccc4)CC3)c(=O)c2cc1F`, the IC50 was under 20 nM. Molecule `CN(C)CCCNc1cc2ncn(CC3(O)CCN(C(=O)[C@@H](CCCNC(=O)c4ccc5c(Cl)cc(C6CC6)nc5c4)Cc4ccccc4)CC3)c(=O)c2cc1F` has an IC50 of under 20 nM. In the case of `CN(C)CCC(=O)Nc1ccc2c(=O)n(CC3(O)CCN(C(=O)c4cnn(CCNC(=O)c5ccc6c(Cl)ccnc6c5)c4Cc4ccccc4)CC3)cnc2c1` [Compound 53, N-(2-(5-benzyl-4-(4-((7-(3-(dimethylamino)propanamido)-4-oxoquinazolin-3(4H)-yl)methyl)-4-hydroxypiperidine-1-carbonyl)-1H-pyrazol-1-yl)ethyl)-4-chloroquinoline-7-carboxamide], the IC50 is reported as 100 to 1000 nM. Molecule `CN1CCN(CCC(=O)Nc2ccc3c(=O)n(CC4(O)CCN(C(=O)[C@H](CCCNC(=O)c5ccc6c(Cl)cc(-c7ccc(F)cc7)nc6c5)Cc5ccccc5)CC4)cnc3c2)CC1` [Compound 4, (R)—N-(4-benzyl-5-(4-hydroxy-4-((7-(3-(4-methylpiperazin-1-yl)propanamido)-4-oxoquinazolin-3(4H)-yl)methyl)piperidin-1-yl)-5-oxopentyl)-4-chloro-2-(4-fluorophenyl)quinoline-7-carboxamide] has an IC50 of over 1000 nM. For `CN(C)CCC(=O)Nc1ccc2c(=O)n(CC3(O)CCN(C(=O)C(CCCNC(=O)c4ccc5c(Cl)c6c(nc5c4)CCOC6)Cc4ccccc4)CC3)cnc2c1` (stereo not drawn) [Compound 90], the IC50 was 20 to 100 nM. For `CN(C)CCC(=O)Nc1ccc2c(=O)n(CC3(O)CCN(C(=O)C(CCCNC(=O)c4ccc5c(Cl)nccc5c4)Cc4ccccc4)CC3)cnc2c1` (stereo not drawn) [Compound 68], the IC50 was over 1000 nM. In the case of `CN(C)CCCNc1ccc2c(=O)n(CC3(O)CCN(C(=O)[C@H](CCCNC(=O)c4ccc5c(Cl)cc(C6CC6)nc5c4)Cc4ccccc4)CC3)cnc2c1` [Compound 136], the IC50 is reported as under 20 nM. Work on `CN(C)CCC(=O)Nc1ccc2c(=O)n(CC3(O)CCN(C(=O)N(CCCNC(=O)c4ccc5c(Cl)ccnc5c4)Cc4ccccc4)CC3)cnc2c1` [Compound 83] yielded an IC50 of over 1000 nM. With `CN1CCN(CCC(=O)Nc2ccc3c(=O)n(CC4(O)CCN(C(=O)C(CCCNC(=O)c5ccc6c(Cl)cc(-c7cccc(C#N)c7)nc6c5)Cc5ccccc5)CC4)cnc3c2)CC1` (stereo not drawn) [Compound 16, N-(4-benzyl-5-(4-hydroxy-4-((7-(3-(4-methylpiperazin-1-yl)propanamido)-4-oxoquinazolin-3(4H)-yl)methyl)piperidin-1-yl)-5-oxopentyl)-4-chloro-2-(3-cyanophenyl)quinoline-7-carboxamide] the IC50 was 100 to 1000 nM. Work on `COc1cc(Cl)nc2cc(C(=O)NCCCC(Cc3ccccc3)C(=O)N3CCC(O)(Cn4cnc5cc(NC(=O)CCN(C)C)ccc5c4=O)CC3)ccc12` (stereo not drawn) [Compound 67] yielded an IC50 of over 1000 nM. Molecule `COc1cc(Cl)c2ccc(C(=O)NCCCC(Cc3ccccc3)C(=O)N3CCC(O)(Cn4cnc5cc(NC(=O)CCN(C)C)ccc5c4=O)CC3)cc2n1` (stereo not drawn) [Compound 66] has an IC50 of over 1000 nM. In the case of `CN(C)CCCOc1ccc2c(=O)n(CC3(O)CCN(C(=O)[C@@H](CCCNC(=O)c4ccc5c(Cl)c(CO)cnc5c4)Cc4ccccc4)CC3)cnc2c1`, the IC50 is reported as under 20 nM. With `CN(C)CCOc1cc(F)c2c(=O)n(CC3(O)CCN(C(=O)[C@H](CCCNC(=O)c4ccc5c(Cl)cc(C6CC6)nc5c4)Cc4ccccc4)CC3)cnc2c1` [Compound 118] the IC50 was 100 to 1000 nM. Molecule `O=C(CCN1CCNCC1)Nc1ccn2c(=O)c(CN3CCN(C(=O)[C@@H]4CCN(CCNC(=O)c5ccc6c(Cl)ccnc6c5)C[C@H]4c4ccccc4)CC3)cnc2c1` [Compound 100] has an IC50 of over 1000 nM. Molecule `C=CS(=O)(=O)Nc1ccccc1N1CCC(C(=O)N2CCC(O)(Cn3cnc4cc(NC(=O)CCN5CCN(C)CC5)ccc4c3=O)CC2)CC1` [Compound 92] has an IC50 of 20 to 100 nM. `C=CC(=O)Nc1ccc(C(F)(F)F)cc1N1CCC(C(=O)N2CCC(O)(Cn3cnc4cc(NC(=O)CCN5CCN(C)CC5)ccc4c3=O)CC2)C(c2ccccc2)C1` (stereo not drawn) [Compound 104] gave an IC50 of 100 to 1000 nM. With `Nc1cccc(-n2ncc3c(=O)n(CC4(O)CCN(C(=O)C(CCCNC(=O)c5ccc6c(Cl)ccnc6c5)Cc5ccccc5)CC4)cnc32)c1` (stereo not drawn) [Compound 8, N-(5-(4-((1-(3-aminophenyl)-4-oxo-1H-pyrazolo[3,4-d]pyrimidin-5(4H)-yl)methyl)-4-hydroxypiperidin-1-yl)-4-benzyl-5-oxopentyl)-4-chloroquinoline-7-carboxamide] the IC50 was 20 to 100 nM. Molecule `CN1CCN(CCC(=O)Nc2ccc3c(=O)n(CC4(O)CCN(C(=O)C(CCCNC(=O)c5ccc6c(Cl)cc(-c7cccnc7)nc6c5)Cc5ccccc5)CC4)cnc3c2)CC1` (stereo not drawn) [Compound 14, N-(4-benzyl-5-(4-hydroxy-4-((7-(3-(4-methylpiperazin-1-yl)propanamido)-4-oxoquinazolin-3(4H)-yl)methyl)piperidin-1-yl)-5-oxopentyl)-4-chloro-2-(pyridin-3-yl)quinoline-7-carboxamide] has an IC50 of 100 to 1000 nM. `O=C(NCCN1CC[C@@H](C(=O)N2CCC(O)(Cn3cnc4cc(-c5nc(CN6CCNCC6)co5)ccc4c3=O)CC2)[C@H](c2ccccc2)C1)c1ccc2c(Cl)ccnc2c1` [Compound 144] gave an IC50 of 20 to 100 nM. Molecule `Cc1cc(Cl)c2ccc(C(=O)NCCC[C@H](Cc3ccccc3)C(=O)N3CCC(O)(Cn4cnc5cc(NC(=O)CCN(C)C)ccc5c4=O)CC3)cc2n1` [Compound 50, (R)—N-(4-benzyl-5-(4-((7-(3-(dimethylamino)propanamido)-4-oxoquinazolin-3(4H)-yl)methyl)-4-hydroxypiperidin-1-yl)-5-oxopentyl)-4-chloro-2-methylquinoline-7-carboxamide] has an IC50 of over 1000 nM. For `CN1CCN(CCOc2ccc3ncn(CC4(O)CCN(C(=O)C(CCCNC(=O)c5ccc6c(Cl)ccnc6c5)Cc5ccccc5)CC4)c(=O)c3c2)CC1` (stereo not drawn) [Compound 38, N-(4-benzyl-5-(4-hydroxy-4-((6-(2-(4-methylpiperazin-1-yl)ethoxy)-4-oxoquinazolin-3(4H)-yl)methyl)piperidin-1-yl)-5-oxopentyl)-4-chloroquinoline-7-carboxamide], the IC50 was over 1000 nM.

Source: US20240376076A1, “INHIBITORS TARGETING UBIQUITIN SPECIFIC PROTEASE 7 (USP7)” (Dana-Farber Cancer Institute, Inc., priority 2021, published 2024)
